Measured values as given in US7560466B2, “Methods of treating or preventing autoimmune diseases with 2,4-pyrimidinediamine compounds” (Rigel Pharmaceuticals, Inc., priority 2003, dated 2009).
Read-outs that look alike come from different tables or passages of the source.

Key:
Syk kinase = target: T1, Syk kinase (Homo sapiens, UniProt P43405); test: Syk kinase biochemical fluorescence polarization assay; conditions: isolated Syk kinase, 11pt, read-out: fp_syk, 11pt
T1 construct: purchased Upstate, Lake Placid N.Y
Description: Many of the 2,4-pyrimidinediamine compounds were tested for the ability to inhibit Syk kinase catalyzed phosphorylation of a peptide substrate in a biochemical fluorescenced polarization assay with isolated Syk kinase. In this experiment, Compounds were diluted to 1% DMSO in kinase buffer (20 mM HEPES, pH 7.4, 5 mM MgCl2, 2 mM MnCl2, 1 mM DTT, 0.1 mg/mL acetylated Bovine Gamma Globulin). Compound in 1% DMSO (0.2% DMSO final) was mixed with ATP/substrate solution at room temperature. Syk kinase (Upstate, Lake Placid N.Y.) was added to a final reaction volume of 20 uL, and the reaction was incubated for 30 minutes at room temperature. […] EDTA (10 mM final)/anti-phosphotyrosine antibody (1× final)/fluorescent phosphopeptide tracer (0.5× final) was added in FP Dilution Buffer to stop the reaction for a total volume of 40 uL according to manufacturer's instructions (PanVera Corporation) The plate was incubated for 30 minutes in the dark at room temperature. Plates were read on a Polarion fluorescence polarization plate reader (Tecan). Data were converted to amount of phosphopeptide present using a calibration curve generated by competition with the phosphopeptide competitor provided in the Tyrosine Kinase Assay Kit, Green (PanVera Corporation).
In Tabe 1, all reported values are IC50s (in μM).

[1] = Plasma concentration in RPA reaction study (satellite / exposure); type: in vivo, mouse; conditions: for concentration at 5 h: pretreatment 1 hr; for Exposure = Pretreatment Time + 4 hours Plasma Concentration ± SEM / concentration at 4.5 h: pretreatment 0.5 hrs
Description: Pretreatment time, in which the test compounds are administered prior to Ab/Ag challenge, depends on the pharmacokinetic (PK) properties of each individual compound. Four hours after induction of Arthus reaction, mice are euthanized, and tissues are harvested for assessment of edema.
All compounds tested were administered by the oral route.

[2] = test system: cultured human mast cells (CHMC), IgE-induced degranulation; test: CHMC low cell density IgE activation: tryptase assay; type: cell-based; conditions: Homo sapiens, Mast cell, low cell density CHMC
Summary of the method: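 Cord-blood CD34+-derived mucosal mast cells (SCF/IL-6 medium), 1000–1500 cells/well, preincubated with compound 1 h at 37°C, then anti-IgE stimulated 30 min at 37°C.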

[3] = test system: cultured human mast cells (CHMC), ionomycin-induced degranulation; test: CHMC low cell density ionomycin activation: tryptase assay; type: cell-based; conditions: Homo sapiens, Mast cell, low cell density CHMC, ionomycin activation (2 μM final), 3pt, read-out: LD Tryptase, CHMC, Iono, 3pt
[4] = C57BL/6, mouse, plasma, 5 mg/kg oral, read-out: Exposure = Pretreatment Time + 4 hours Plasma Concentration ± SEM

Cn1c(N2CCOCC2)nc2cc(Nc3ncc(F)c(Nc4ccc5c(c4)NC(=O)C(C)(C)O5)n3)ccc21 [Compound 944, N4-(2,2-Dimethyl-3-oxo-4H-benz[1,4]oxazin-6-yl)-5-fluoro-N2-[1-methyl-2-(4-morpholino)benzimidazol-5-yl]-2,4-pyrimidinediamine]
IC50 (Syk kinase): < 10 µM | concentration at 5 h ([1]; C57BL/6, mouse, plasma, 2 mg/kg oral, read-out: Exposure = Pretreatment Time + 4 hours Plasma Concentration ± SEM): 4.3 ± 4.2 ng/mL | concentration at 5 h [1, 4]: 3.5 ± 5.3 ng/mL | concentration at 5 h ([1]; C57BL/6, mouse, plasma, 15 mg/kg oral, read-out: Exposure = Pretreatment Time + 4 hours Plasma Concentration ± SEM): 29.7 ± 25.9 ng/mL

COc1c(C)cc(Nc2ncc(F)c(Nc3ccc4c(c3)NC(=O)C(C)(C)O4)n2)cc1Cl [Compound 994]
IC50 (Syk kinase): < 10 µM | concentration at 5.5 h ([1]; C57BL/6, mouse, plasma, 100 mg/kg oral, 90 minutes pretreatment, read-out: Exposure = Pretreatment Time + 4 hours Plasma Concentration ± SEM): 44.2 ± 8.9 ng/mL | concentration at 90 min ([1]; C57BL/6, mouse, plasma, 100 mg/kg oral, 90 minutes pretreatment, read-out: Satellite: At time of challenge Plasma Concentration ± SEM): 78.6 ± 26.4 ng/mL

COc1cc(Nc2ncc(F)c(Nc3ccc4c(n3)NC(=O)C(C)(C)O4)n2)cc(OC)c1OC [Compound 1007, N4-(2,2-Dimethyl-3-oxo-4H-5-pyrid[1,4]oxazin-6-yl)-5-fluoro-N2-(3,4,5-trimethoxyphenyl)-2,4-pyrimidinediamine]
Exposure = Pretreatment Time + 4 hours Plasma Concentration ± SEM ([1]; 0.1 mg/kg oral): BLQ | Exposure = Pretreatment Time + 4 hours Plasma Concentration ± SEM ([1]; 0.5 mg/kg oral): BLQ | concentration at 4.5 h ([1]; C57BL/6, mouse, plasma, 1 mg/kg oral, read-out: Exposure = Pretreatment Time + 4 hours Plasma Concentration ± SEM): 2.3 ± 0.9 ng/mL | concentration at 4.5 h [1, 4]: 19.8 ± 15.7 ng/mL

COc1cc(Nc2ncc(F)c(Nc3ccc4c(n3)NCCO4)n2)cc(OC)c1OC [Compound 1145, N4-(3,4-Dihydro-2H,4H-5-pyrid[1,4]oxazin-6-yl)-5-fluoro-N2-(3,4,5-trimethoxyphenyl)-2,4-pyrimidinediamine]
IC50 (Syk kinase; 4 uM ATP): < 10 µM

COC(=O)CNC(=O)c1ccc(Nc2ncc(F)c(Nc3ccc4c(c3)NC(=O)C(C)(C)O4)n2)cc1 [Compound 1286]
IC50 ([2]; 3pt, read-out: LD Tryptase, CHMC, IgE, 3pt): < 10 µM | IC50 ([2]; 8pt, read-out: LD Tryptase, CHMC, IgE, 8pt): < 10 µM | IC50 [3]: > 10 µM | IC50 (Syk kinase; 4 uM ATP): < 10 µM

COC(=O)CCNC(=O)c1ccc(Nc2ncc(F)c(Nc3ccc4c(n3)NC(=O)C(C)(C)O4)n2)cc1 [Compound 1312, N4-(2,2-Dimethyl-3-oxo-4H-5-pyrid[1,4]oxazin-6-yl)-5-fluoro-N2-[4-[N-(2-methoxycarbonylethyl)aminocarbonyl]phenyl]-2,4-pyrimidinediamine]
IC50 (Syk kinase; 4 uM ATP): < 10 µM
